Earlier results in patent US8119653B2, “Belactosin derivatives as therapeutic agents/biological probes and their synthesis” (The Texas A&M University System, priority 2006, dated 2012).

Tests used:
[1] = in vivo
[2] = tested on: tumor growth
[3] = tested on: tumor cells

- bioavailability [1]: poor
- solubility: poor
SMILES: CCCCCCCCCCC[C@@H](C[C@@H]1OC(=O)[C@H]1CCCCCC)OC(=O)[C@H](CC(C)C)NC=O [Orlistat]
- tumor growth in vivo [2]: can inhibit tumor growth
- effect on tumor cells in vitro [3]: cytotoxic and cytostatic
